Data as given in US10172835B2, “Anticancer agent composition” (J-Pharma Co., Ltd., priority 2014, dated 2019).

Tests used:
KO99L cells [1] = assay: Annexin-V / DAPI apoptosis assay, KO99L cells; type: cell-based, murine; conditions: 48 hr
Experimental: Apoptosis assessment was performed by measuring phosphatidyl-serine membrane redistribution via annexin-V-FITC (Invitrogen). Cells (5.0±0.1×10^5 per well; 2.0 mL) were incubated with effectors, and re-suspended in staining solution (110 μL; Annexin-V ( 1/10) and incubated in the dark (15 min, RT). […] Basal apoptosis and necrosis were determined on control untreated cells.

[2] = test system: HT-29 cell derived from human large intestine cancer; assay: Tumor growth in nude mouse inoculated subcutaneously with HT-29 cells; type: in vivo; conditions: compared with untreated control group
Experimental: A HT-29 cell was inoculated subcutaneously into a mouse, and the transition of the size of the tumor lump was measured with time from the day on which the tumor has grown to a certain size, when each of COM-JP and 5-FU was used alone or in combination.

tPTEN−/− cells = assay: Global protein synthesis (data not shown); type: cell-based, murine
KO99L cells [3] = assay: BrdU incorporation Elisa (proliferation) on KO99L cells; type: cell-based, murine; conditions: 10.0 μM, after 48 h
Experimental: (§1) Two different assays were employed: i) In a 96-well plate format, cells (4.0±0.1×10^4 per well; 100 μL) were incubated with effectors (48 h, 37° C.; n=4 per experiment) and then WST-1 reagent (10 μL; Roche Diagnostics) added to each well of 96-well plates, incubated, and the formazan production was measured at 490 nm; and ii) cells (2.0±0.1×10^4 per well; 100 μL) were incubated with effectors (48 h, 37° C.; n=4 per experiment) and then bromodeoxyuridine reagent (10 μL/well; Roche Diagnostics) was added to each well and incubated (8 h, 37° C.). The cells were then fixed, denatured and incubated with anti-BrdU-conjugated with peroxidase (POD) antibody (100 μL/well). Colorimetric substrate (TMB: tetramethyl-benzidine; 100 μL/well) was added and BrdU incorporation quantified via optical density measurement (450 nm) which corresponds to DNA synthesis and proliferating cells.

[4] = test system: KO99L-LUC cells (tPTEN−/− tumor); assay: In vivo growth of subcutaneous KO99L-LUC tumors in nude mice (volume, bioluminescence, immunohistochemistry)
Experimental: All mice in each experimental group were subcutaneous injected with 99KOL-LUC T-lymphoma cells (200 μL; 5.0±0.1×10^6) stably expressing a reporter luciferase gene. After two days post injection, mice were intraperitoneally administered COMPOUND-JP (50 mg/kg/day/5 days a week) which had been prepared by dissolving drug powder and mixing into saline (NaCl 0.9%). Body weights and tumor volumes were measured every five days. Tumor volumes were calculated according to the mathematical formula: V=(L*W^2)/2 (L:Length; W:Width). To conduct the bioluminescence imaging, mice received an intraperitoneal injection (150 μL, 30 mg/mL) of D-luciferin (Caliper Life Science) and were anesthetized via inhaled isoflurane (2.0%). Bioluminescence signals were monitored using the Photon imager (Biospace Lab) equipped with a highly sensitive cooled CCD camera; all images were collected 10 min post D-luciferin injection. Data were analyzed using total photon flux emission (photons/second) focused on the regions of interest (ROI) enveloping the tumor region.
Sections (4 μm) in paraffin blocks of dissected tumors were labeled with a primary rabbit phospho-S6RP antibody (#4858, Cell Signaling Technology). A second, anti-rabbit antibody conjugated with peroxidase (HRP) (SignalStain®, #8114, Cell Signaling Technology) was added to the sections before revelation with diaminobenzidine (DAB) as recommended by the manufacturer. For necrosis evaluation, sections were stained with hematoxylin/eosin/safran (HES). The images were analyzed and necrosis areas quantified using the ImageJ software (NIH).

KO99L cells [5] = assay: Cell death by flow cytometry after DAPI staining, KO99L cells; type: cell-based, murine; conditions: 48 h
primary tPTEN−/− cells = assay: Cell death of primary tPTEN−/− lines, PI staining and Facs; type: cell-based, murine; conditions: 2.5-20.0 μM, 48 h, five primary tumors
mTOR (phospho-S6RP) = assay: Phospho-Flow staining of phospho-S6RP in primary T-ALL samples; type: cell-based, human; conditions: two primary T-ALL samples, 10 μM
Experimental: Cells (1.0±0.1×10^6 per well; 1 mL) were incubated with various effectors (24 h, 37° C.) and then permeabilized with Cytofix/Cytoperm buffer (100 μL, 30 min, 4° C.) and then washed with PermWash (BD Biosciences) and stained with phospho-Ser235/236-S6RP antibody (30 min, 4° C.). After an additional PermWash, cells were then stained with a secondary anti-rabbit-alexaF 488 (20 μg/mL; Life Technologies) for (30 min, 4° C.). Cells were then washed in PermWash and re-suspended in staining buffer (PBS+0.1% bovine serum albumin+1.0% paraformaldehyde) and analyzed by flow cytometry on a MacsQuant Analyser (Miltenyi Biotech).

KO99-RJ cells = assay: Cell death (PI staining) of KO99-RJ cells; type: cell-based, murine; conditions: 48 h
[6] = test system: Panc-1 cell derived from human pancreatic cancer; assay: MTT proliferation of Panc-1 cells; type: cell-based; conditions: Panc-1, culture 5 days
Experimental: The culture in the absence of COM-JP and in the presence of COM-JP with different concentrations in the culture medium of each cancer cell was continued for 5 days. Proliferation activity of the cell on each elapsed day was measured by a MTT method.

primary T-ALL cells = assay: Cell viability of human T-ALL primary samples; type: cell-based; conditions: primary T-ALL cells from patients
Experimental: Informed consent was obtained according to institutional guidelines. Heparin-treated blood was obtained from three T-ALL patients and from two healthy donors. Patient lymphoblasts were isolated within 24 hours post collection using Ficoll-Paque PLUS density gradient following vendor recommended procedures (GE Healthcare Life Sciences).
as §1

HT-29 colon cancer cells = conditions: Reference 43; cited from earlier work

SMILES: Nc1cc(COc2c(Cl)cc(C[C@H](N)C(=O)O)cc2Cl)c2oc(-c3ccccc3)nc2c1 [COMPOUND-JP, O-(5-amino-2-phenylbenzoxazole-7-yl)methyl-3,5-dichloro-L-tyrosine]
- levels of apoptosis (annexin-V+ and annexin-V+/DAPI+) compared to control (KO99L cells [1]; 10.0 μM): 2.8 fold
- levels of apoptosis (annexin-V+ and annexin-V+/DAPI+) compared to control (KO99L cells [1]; 20.0 μM): 3.8 fold
- increase of the tumor, single administration [2]: more significant decrease
- interference with global protein synthesis (tPTEN−/− cells): did not observe any interference
- diminished cell cycling (proliferation) (KO99L cells [3]): 75%
- decrease of mean tumor volume ([4]; 50 mg/kg/day, day 18, vs vehicle treated group, p<0.05): 45%
- decrease of tumor luminescence ([4]; 50 mg/kg/day, p<0.05): 59%
- necrotic response within the tumors ([4]; treated mice, untreated 4.6+/−0.5%): 10.5+/−0.5%
- pS6RP staining in tumors ([4]; tumors from treated mice, 50 mg/kg/day): dramatically decreased
- decrease of COMPOUND-JP induced cell death upon EAA addition (KO99L cells [5]): 2.5 fold
- cell death in primary tPTEN−/− cells (primary tPTEN−/− cells): dose dependent
- phospho-S6RP by phospho-Flow cytometry (mTOR (phospho-S6RP)): mTOR inhibitory effect
- cell death (KO99-RJ cells): far less efficient
- proliferation activity [6]: dose-dependent decrease
- cell viability (COMPOUND-JP sensitivity) (primary T-ALL cells): concentration dependent
- growth of HT-29 colon cancer cells transplanted in nude mice (HT-29 colon cancer cells): reduce the growth
